This note sets out measurements from PubChem BioAssay AID256 (DTP/NCI, 2004).

The assay has as its system CD2F1 mice, L1210 leukemia ip, survival T/C. Description: NCI In Vivo Anticancer Drug Screen. Data for tumor model L1210 Leukemia (intraperitoneal) in CD2F1 (CDF1) mice. As to conditions: higher = longer survival. Put shortly:
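Activity against a transplanted murine tumor was judged by comparing the compound group with a vehicle group. The outcome in the treated animals was divided by that in the controls.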

The mark [1] stands for this setting: endpoint: mean survival time, dose: 100.0 mg/kg/injection, schedule: Q01DX001 (ip), vehicle: saline.
Setting [2] is: endpoint: mean survival time, dose: 100.0 mg/kg/injection, schedule: Q01DX009 (ip), vehicle: saline.
Setting [3] is: endpoint: mean survival time, dose: 100.0 mg/kg/injection, schedule: Q04DX003 (ip), vehicle: saline.
Where [4] appears, read: endpoint: mean survival time, dose: 50.0 mg/kg/injection, schedule: Q01DX009 (ip), vehicle: saline with Tween-80.
Setting [5] is: endpoint: mean survival time, dose: 100.0 mg/kg/injection, schedule: Q01DX009 (ip), vehicle: saline with Tween-80.
Where [6] appears, read: endpoint: mean survival time, dose: 100.0 mg/kg/injection, schedule: Q04DX003 (ip), vehicle: saline with Tween-80.
The mark [7] stands for this setting: endpoint: mean survival time, dose: 200.0 mg/kg/injection, schedule: Q04DX003 (ip), vehicle: saline with Tween-80.
Where [8] appears, read: endpoint: mean survival time, dose: 200.0 mg/kg/injection, schedule: Q01DX009 (ip), vehicle: saline with Tween-80.
Setting [9] is: endpoint: mean survival time, dose: 400.0 mg/kg/injection, schedule: Q01DX009 (ip), vehicle: saline with Tween-80.
[10] abbreviates: endpoint: mean survival time, dose: 100.0 mg/kg/injection, schedule: Q04DX003 (ip), vehicle: other.
The mark [11] stands for this setting: endpoint: mean survival time, dose: 200.0 mg/kg/injection, schedule: Q04DX003 (ip), vehicle: other.
The mark [12] stands for this setting: endpoint: mean survival time, dose: 400.0 mg/kg/injection, schedule: Q04DX003 (ip), vehicle: other.

Values joined by “and” are separate entries in the source; they are usually repeats but may differ in a detail not shown here. Equal values may be shown once. Inconclusive results and toxic doses are left out.

For `CC=C(CCCC)CCCC`, the T/C runs as follows: under setting [1], 107 % of control; (endpoint: mean survival time, dose: 200.0 mg/kg/injection, schedule: Q01DX001 (ip), vehicle: saline) 102 % of control; (endpoint: mean survival time, dose: 400.0 mg/kg/injection, schedule: Q01DX001 (ip), vehicle: saline) 103 % of control.

Take `CCOP(=O)(OCC)C1=C(CC)CC1`: where the note is “endpoint: mean survival time, dose: 75.0 mg/kg/injection, schedule: Q01DX001 (ip), vehicle: other”, the T/C is 98 % of control.

`CN(C)C(CCN1CCCCC1)CN1CCCCC1` (stereo not drawn): the T/C by setting is: under setting [2], 101 % of control; under setting [3], 101 % of control; (endpoint: mean survival time, dose: 200.0 mg/kg/injection, schedule: Q01DX009 (ip), vehicle: saline) 98 % of control; (endpoint: mean survival time, dose: 200.0 mg/kg/injection, schedule: Q04DX003 (ip), vehicle: saline) 101 % of control; (endpoint: mean survival time, dose: 400.0 mg/kg/injection, schedule: Q01DX009 (ip), vehicle: saline) 102 % of control; (endpoint: mean survival time, dose: 400.0 mg/kg/injection, schedule: Q04DX003 (ip), vehicle: saline) 98 % of control.

Consider `CCCC(C)C/C(C)=C/C(C)(C)C(CC(=O)N1CCOCC1)C(=O)O` (stereo not drawn), for which the T/C was 95 % of control under setting [4], 93 % of control under setting [5], 100 % of control under setting [6] and 98 % of control under setting [7].

Consider `COC1CCC2CC1[N+](C)(C)C2` (stereo not drawn), for which the T/C reads like this: (endpoint: mean survival time, dose: 12.5 mg/kg/injection, schedule: Q04DX002 (ip), vehicle: saline) 96 % of control; (endpoint: mean survival time, dose: 25.0 mg/kg/injection, schedule: Q04DX002 (ip), vehicle: saline) 101 % of control; (endpoint: mean survival time, dose: 50.0 mg/kg/injection, schedule: Q04DX002 (ip), vehicle: saline) 101 % of control.

As for `C[C@]12CCCC[C@@H]1CC[C@@H]1[C@@H]2[C@@H](O)C[C@]2(C)[C@@H](O)CC[C@@H]12`, the T/C is, setting by setting: under setting [6], 93 % of control; under setting [7], 101 % of control.

As to `Nc1nc(F)nc2c1ncn2C1OC(CO)C(O)C1O` (stereo not drawn), the T/C (endpoint: mean survival time, dose: 100.0 mg/kg/injection, schedule: Q01DX001 (ip), vehicle: other) is 105 % of control; the T/C (endpoint: mean survival time, dose: 111.0 mg/kg/injection, schedule: Q01DX009 (ip), vehicle: saline with Tween-80) was 187 % of control; the T/C (endpoint: mean survival time, dose: 133.0 mg/kg/injection, schedule: Q01DX005 (ip), vehicle: saline with Tween-80) is 154 % of control; the T/C (endpoint: mean survival time, dose: 133.0 mg/kg/injection, schedule: Q01DX009 (ip), vehicle: saline with Tween-80) is 227 % of control and 276 % of control; the T/C (endpoint: mean survival time, dose: 156.0 mg/kg/injection, schedule: Q01DX009 (ip), vehicle: saline with Tween-80) was 393 % of control; the T/C (endpoint: mean survival time, dose: 178.0 mg/kg/injection, schedule: Q01DX005 (ip), vehicle: saline with Tween-80) is 179 % of control. The T/C (endpoint: mean survival time, dose: 178.0 mg/kg/injection, schedule: Q01DX009 (ip), vehicle: saline with Tween-80) was 473 % of control; the T/C (endpoint: mean survival time, dose: 200.0 mg/kg/injection, schedule: Q01DX001 (ip), vehicle: other) is 109 % of control; the T/C under setting [8] is 563 % of control; the T/C (endpoint: mean survival time, dose: 222.0 mg/kg/injection, schedule: Q01DX009 (ip), vehicle: saline with Tween-80) was 333 % of control; the T/C (endpoint: mean survival time, dose: 400.0 mg/kg/injection, schedule: Q01DX001 (ip), vehicle: other) was 105 % of control.

As to `CCOC(=O)c1c[nH]n(C2OC(CO)C(O)C2O)c1=O` (stereo not drawn), the T/C (endpoint: median survival time, dose: 45.5 mg/kg/injection, schedule: Q01DX005 (ip), vehicle: saline) is 96 % of control; the T/C (endpoint: median survival time, dose: 90.9 mg/kg/injection, schedule: Q01DX005 (ip), vehicle: saline) was 96 % of control; the T/C (endpoint: median survival time, dose: 181.9 mg/kg/injection, schedule: Q01DX005 (ip), vehicle: saline) is 98 % of control.

Turning to `CC(C)=CCC/C(C)=C\COC(=N)C(Cl)(Cl)Cl`, the T/C under setting [4] was 88 % of control, the T/C under setting [5] is 92 % of control and the T/C under setting [8] is 92 % of control.

`COC12[C@@H]3N[C@@H]3CN1C1=C(C(=O)C(N3CCCC(O)C3)=C(C)C1=O)[C@@H]2COC(N)=O` (stereo partly drawn): the T/C (endpoint: median survival time, dose: 3.0 mg/kg/injection, schedule: Q01DX001 (ip), vehicle: saline) is 106 % of control; the T/C (endpoint: median survival time, dose: 6.0 mg/kg/injection, schedule: Q01DX001 (ip), vehicle: saline) was 111 % of control; the T/C (endpoint: median survival time, dose: 12.0 mg/kg/injection, schedule: Q01DX001 (ip), vehicle: saline) was 118 % of control and 98 % of control; the T/C (endpoint: median survival time, dose: 24.0 mg/kg/injection, schedule: Q01DX001 (ip), vehicle: saline) is 108 % of control; the T/C (endpoint: median survival time, dose: 48.0 mg/kg/injection, schedule: Q01DX001 (ip), vehicle: saline) is 112 % of control.

On to `CN(CC(=O)C(C)(C)C)C1CCCCC1`, for which the T/C under setting [3] was 91 % of control.

With `C=C1CC23CC1(O)CCC2C12C=CCC(C)(C(=O)O1)C2C3C(=O)O` (stereo not drawn), the T/C runs as follows: under setting [5], 91 % of control; under setting [8], 95 % of control; under setting [9], 91 % of control.

With `CCO/N=C(\C)C(N)=O`, the T/C by setting is: under setting [5], 101 % of control; under setting [8], 108 % of control; under setting [9], 95 % of control.

As to `Cc1cn(C2CC(O)C(CO)O2)c(=O)[n]([Hg][c]2ccccc2)c1=O` (stereo not drawn), the T/C was 110 % of control (endpoint: median survival time, dose: 0.79 mg/kg/injection, schedule: Q01DX005 (ip), vehicle: saline); 103 % of control (endpoint: median survival time, dose: 1.56 mg/kg/injection, schedule: Q01DX005 (ip), vehicle: saline); 112 % of control (endpoint: median survival time, dose: 3.12 mg/kg/injection, schedule: Q01DX005 (ip), vehicle: saline); 103 % of control (endpoint: median survival time, dose: 6.25 mg/kg/injection, schedule: Q01DX005 (ip), vehicle: saline); 103 % of control (endpoint: median survival time, dose: 12.5 mg/kg/injection, schedule: Q01DX005 (ip), vehicle: saline).

Turning to `COc1ccc(Cl)cc1Cn1ccnc1`, the T/C runs as follows: (endpoint: mean survival time, dose: 50.0 mg/kg/injection, schedule: Q01DX001 (ip), vehicle: saline) 104 % of control; (endpoint: mean survival time, dose: 50.0 mg/kg/injection, schedule: Q01DX009 (ip), vehicle: saline) 115 % of control and 102 % of control; (endpoint: mean survival time, dose: 50.0 mg/kg/injection, schedule: Q04DX003 (ip), vehicle: saline) 107 % of control; under setting [1], 107 % of control; under setting [2], 118 % of control and 107 % of control; (endpoint: mean survival time, dose: 100.0 mg/kg/injection, schedule: Q04DX002 (ip), vehicle: saline) 115 % of control and 100 % of control. In addition, the T/C is 115 % of control under setting [3]; 117 % of control and 109 % of control (endpoint: mean survival time, dose: 200.0 mg/kg/injection, schedule: Q04DX002 (ip), vehicle: saline).

On to `Nc1ccc(-c2ccc(N)cc2)cc1`, for which the T/C under setting [5] was 94 % of control; the T/C under setting [6] is 101 % of control; the T/C under setting [8] is 90 % of control; the T/C under setting [7] was 101 % of control; the T/C under setting [9] is 100 % of control; the T/C (endpoint: mean survival time, dose: 400.0 mg/kg/injection, schedule: Q04DX003 (ip), vehicle: saline with Tween-80) is 96 % of control.

For `CN(C)N=Nc1ccccc1`, the T/C runs as follows: (endpoint: mean survival time, dose: 37.5 mg/kg/injection, schedule: Q01DX009 (ip), vehicle: Klucel (hydroxypropylcellulose) (HPC)) 158 % of control; (endpoint: mean survival time, dose: 75.0 mg/kg/injection, schedule: Q01DX009 (ip), vehicle: Klucel (hydroxypropylcellulose) (HPC)) 106 % of control.

With `O=c1[nH]cnc2c1nc(Br)n2C1OC(CO)C(O)C1O` (stereo not drawn), the T/C runs as follows: (endpoint: mean survival time, dose: 12.5 mg/kg/injection, schedule: Q01DX005 (ip), vehicle: Klucel (hydroxypropylcellulose) (HPC)) 91 % of control; (endpoint: mean survival time, dose: 25.0 mg/kg/injection, schedule: Q01DX005 (ip), vehicle: Klucel (hydroxypropylcellulose) (HPC)) 89 % of control; (endpoint: mean survival time, dose: 50.0 mg/kg/injection, schedule: Q01DX005 (ip), vehicle: Klucel (hydroxypropylcellulose) (HPC)) 93 % of control; (endpoint: mean survival time, dose: 100.0 mg/kg/injection, schedule: Q01DX005 (ip), vehicle: Klucel (hydroxypropylcellulose) (HPC)) 88 % of control; (endpoint: mean survival time, dose: 200.0 mg/kg/injection, schedule: Q01DX005 (ip), vehicle: Klucel (hydroxypropylcellulose) (HPC)) 89 % of control.

`COc1ccccc1NC(=O)OCC#CCOC(=O)Nc1ccccc1OC`: the T/C was 91 % of control (endpoint: mean survival time, dose: 100.0 mg/kg/injection, schedule: Q01DX009 (ip), vehicle: Klucel (hydroxypropylcellulose) (HPC)); 91 % of control (endpoint: mean survival time, dose: 200.0 mg/kg/injection, schedule: Q01DX009 (ip), vehicle: Klucel (hydroxypropylcellulose) (HPC)); 92 % of control (endpoint: mean survival time, dose: 400.0 mg/kg/injection, schedule: Q01DX009 (ip), vehicle: Klucel (hydroxypropylcellulose) (HPC)).

For the compound `O=[N+]([O-])c1cccc(OCCCOc2ccccc2)c1`, the T/C under setting [10] was 93 % of control, the T/C under setting [11] is 93 % of control and the T/C under setting [12] is 94 % of control.

With `C=COCCCCCCCCCCCCCCCCCC`, the T/C was 108 % of control under setting [10], 108 % of control under setting [11] and 98 % of control under setting [12].
